US20250120967A1, “TYROSINE KINASES INHIBITORS AND USES THEREOF” (GREAT NOVEL THERAPEUTICS BIOTECH & MEDICALS CORPORATION, priority 2023, published 2025)
Where “and” joins values, the source holds several entries; their conditions need not be identical. Equal values may be shown once.

Test system: CT26 cells
Experiment: Tumor rechallenge test, CT26 rechallenge
Format: in vivo, Balb/c mice
Settings: Table 9, CT26 rechallenge, GNTbm-38-K30 20 mg/kg, Regorafenib 30 mg/kg, Cbo-23 30 mg/kg
Method: Mice evaluated as CR/PR can enter the rechallenge study. All mice with PR/CR response went through rechallenges with CT26 cells on the contralateral side. The first rechallenge was performed after second assessment with a tumor dose of 1×10^6 cells per mouse. After 7 days of growth, CT26 and LLC1 tumor sizes were used as the baseline. Tumor growth was monitored for a duration of 11 days, and on the 11th day, a tumor size assessment was conducted relative to the baseline. If both of the following criteria are met, the response will be considered as relapse: first, the tumor size was over 1.5 folds when compared to that of baseline; second, the tumor volume was over 150 mm^3.
If both of the following criteria are met, the response will be considered as relapse: first, the tumor size over 1.5 folds when compared to that of baseline; second, the tumor volume at day 67 was over 150 mm^3.
If both of the following criteria are met, the response will be considered as relapse: first, the tumor size was over 1.5 folds when compared to that of baseline; second, the tumor volume at day 56 was over 150 mm^3.

COc1cc2nccc(Oc3ccc(NC(=O)C4(C(=O)Nc5ccc(F)cc5)CC4)cc3F)c2cc1Oc1ccc(N)cc1F [Cbo-23] was tested. Which “Day 56 Fold change” value (individual mice, vs Day 45) did it give?
Its value is 2.6 and 0.

What about the “Day 45 mm^3 (baseline tumor size)” value (individual mice) of the same compound?
Its value is 119.17 mm^3 and 60.82 mm^3.

And the “Day 56 mm^3” value (individual mice)?
Its value is 309.20 mm^3 and 0 mm^3.

What about the Score (individual mice) of the same compound?
The Score was “+ (If both of the following criteria are met, the response will be considered as relapse: first, the tumor size was over 1.5 folds when compared to that of baseline; second, the tumor volume at day 56 was over 150 mm^3.)”.

And the “Immunity Percentage” value?
The value was 50% (1/2).
